Source: the NIST ThermoML archive (doi:10.1021/acs.jced.8b00125)
± gives the expanded uncertainty stated by the source. One block for each molecule: values may come before it.

Settings: Liquid, Closed cell (Static) method

SMILES: C1CCCCC1 [cyclohexane]
vapor or sublimation pressure (303.15 K): 16.4 ± 1 kPa | vapor or sublimation pressure (313.15 K): 24.7 ± 1 kPa | vapor or sublimation pressure (323.15 K): 36.4 ± 1 kPa | vapor or sublimation pressure (333.15 K): 52 ± 1.1 kPa | vapor or sublimation pressure (343.15 K): 72.5 ± 1.1 kPa

SMILES: CCC1CCCCC1 [ethylcyclohexane]
vapor or sublimation pressure (303.15 K): 2.1 ± 1 kPa | vapor or sublimation pressure (313.15 K): 3.7 ± 1 kPa | vapor or sublimation pressure (323.15 K): 6 ± 1 kPa | vapor or sublimation pressure (333.15 K): 9.3 ± 1 kPa | vapor or sublimation pressure (343.15 K): 13.9 ± 1 kPa | vapor or sublimation pressure (353.15 K): 20.4 ± 1 kPa | vapor or sublimation pressure (363.15 K): 28.9 ± 1 kPa | vapor or sublimation pressure (373.15 K): 40.3 ± 1 kPa | vapor or sublimation pressure (383.15 K): 54.8 ± 1.1 kPa | vapor or sublimation pressure (393.15 K): 73.2 ± 1.1 kPa

SMILES: CC1CCCCC1 [methylcyclohexane]
vapor or sublimation pressure (303.15 K): 7.9 ± 1 kPa | vapor or sublimation pressure (313.15 K): 12.3 ± 1 kPa | vapor or sublimation pressure (323.15 K): 18.5 ± 1 kPa | vapor or sublimation pressure (333.15 K): 27.1 ± 1 kPa | vapor or sublimation pressure (343.15 K): 38.7 ± 1 kPa | vapor or sublimation pressure (353.15 K): 53.8 ± 1.1 kPa | vapor or sublimation pressure (363.15 K): 73.3 ± 1.1 kPa

The remaining lines, values ahead:

vapor or sublimation pressure (303.15 K): 0.2 kPa | vapor or sublimation pressure (313.15 K): 0.6 ± 1 kPa | vapor or sublimation pressure (323.15 K): 1 ± 1 kPa | vapor or sublimation pressure (333.15 K): 1.7 ± 1 kPa | vapor or sublimation pressure (343.15 K): 2.7 ± 1 kPa | vapor or sublimation pressure (353.15 K): 4.3 ± 1 kPa | vapor or sublimation pressure (363.15 K): 6.6 ± 1 kPa | vapor or sublimation pressure (373.15 K): 9.9 ± 1 kPa | vapor or sublimation pressure (383.15 K): 14.4 ± 1 kPa | vapor or sublimation pressure (393.15 K): 20.6 ± 1 kPa
SMILES: CCCCCCCCCC [decane]

vapor or sublimation pressure (343.15 K): 0.4 kPa | vapor or sublimation pressure (353.15 K): 0.7 ± 1 kPa | vapor or sublimation pressure (363.15 K): 1.2 ± 1 kPa | vapor or sublimation pressure (373.15 K): 2 ± 1 kPa | vapor or sublimation pressure (383.15 K): 3.2 ± 1 kPa | vapor or sublimation pressure (393.15 K): 4.9 ± 1 kPa
SMILES: CCCCCCCCCCCC [dodecane]

vapor or sublimation pressure (303.15 K): 7.9 ± 1 kPa | vapor or sublimation pressure (313.15 K): 12.4 ± 1 kPa | vapor or sublimation pressure (323.15 K): 19 ± 1 kPa | vapor or sublimation pressure (333.15 K): 28.2 ± 1 kPa | vapor or sublimation pressure (343.15 K): 40.6 ± 1 kPa | vapor or sublimation pressure (353.15 K): 57.1 ± 1.1 kPa
SMILES: CCCCCCC [heptane]
